Patent US5814612A, “Retinol derivatives and uses thereof” (priority 1992, dated 1998)

Tests used:
CD8^+ T lymphocytes = assay: Proliferation of anti-CD3 plus IL-2 activated CD8+ T lymphocytes; type: cell-based, BALB/c mouse
From the text: Growth curves of lymph node T cells depleted of antigen-presenting cells (FIG. 17A) with and without 10^-6 M retinol at 2×10^5 and 5×10^4 cells/well. (FIG. 17B) Dose-responses elicited by different retinoids in cultures of lymph node T cells depleted of antigen-presenting cells. Also shown are the growth curves of CD4^+ (FIG. 17C) and CD8^+ T lymphocytes (FIG. 17D) in the presence of either retinol, 14HRR, human serum or in their absence.
T lymphocytes, purified as described, 5×10^4 /well, were activated with immobilized anti-CD3 antibody in ITLB medium. The indicated amounts of retinoids or human serum were added at initiation of cultures. […] 14HRR was added every 12 hours. DNA synthesis was measured by a 4 hour pulse with tritiated thymidine. SDs were ≤17%.
Mature T cells were obtained from pooled intestinal, axillary, inguinal and submandibular lymph nodes of 4 to 10-week-old BALB/c mice. To fractionate cells into CD4 and CD8 subsets and at the same time remove APC, a combination of adherence and complement lysis was used as follows:
The cell suspension in a volume of 2 ml was applied to a nylon wool column (40) (0.6 g of washed nylon fibers in the barrel of a 10 ml syringe) and incubated at 37° C. for 40 min. […] The success of the enrichment procedures was monitored cytofluorimetrically using FITC-conjugated anti-CD8 and PE-conjugated anti-CD4. […]

[1] = system: immediate early genes in fibroblasts; assay: Expression of immediate early genes in fibroblasts; type: cell-based; conditions: work to be published elsewhere
B lymphocytes = conditions: cited from earlier work
5/2 cells = type: in vitro ADME, human
Experimental: 5/2 cells (10^6 cells in 10 ml HB 101 medium) were incubated with all-trans-[^3 H] retinol (10 uCe/ml). After 24 hours, retinoids were extracted from the washed cell pellet and unlabeled marker retinoids were added. The crude extract was loaded on an analytical reversed-phase C-18 column. Retinoids were eluted with the shown linear gradient of water/methanol/chloroform. The flow rate was 0.5 ml/min. DPM were determined with an on line scintillation counter. Reference retinoids were the all-trans forms of 0: 3,4-didehydroretinoic acid, 1: all-trans-retinoic acid, 2: 3,4-didehydroretinol, 3: retinol, 4: retinyl linoleate, 5: retinyl oleate, 6: retinyl palmitate. Shaded area corresponds to P3. Cross-hatched area corresponds to P1.
Lymphoblastoid 5/2 cells grown in the presence of 10^-6 M retinol were spiked with ^3 H-labeled retinol. After 16 hours the cell pellet was delipidated according to the method of McLean et al. and separated on a reversed phase C-18 HPLC column (FIG. 7). […] Three peaks, P1, P2 and P3, could not be immediately identified. One peak eluting at 36-39 minutes (corresponding 83% methanol 7% water) provisionally called P3, but now known as 14HRR, was unusual because unlike P1 eluting at 31-34 minutes, its relative amount increased when the retinol concentration was lowered or when retinol was given to the cells bound to RBP. […] Since HeLa cells contain 14HRR, these cells were also used. 50 ml of packed HeLa cells (10^10 cells) yielded 25 OD348nmunits of pure P3 after the following sequence of steps: 1. Growth in the presence of 10^-5 M retinol; 2. Extraction of cell pellet according to McClean et al. (13); 3. Preparative C-18 HPLC column eluted with a water/methanol gradient; 4. semipreparative C18 HPLC column eluted with a water/acetonitrile gradient; 5. analytical C4 column eluted with a water/methanol gradient.

Ket = assay: Retinol metabolism, Ket; type: in vitro ADME, human
Experimental: (§1) Legend: 2.5×10^6 cells were grown overnight in 5 ml RPMI/10% FBS. The FBS was preincubated at room temperature with 14.4 uCi [^3 H] retinol (NEN) for 4h. The cell pellet was washed twice with PBS. The retinoid were extracted according to MClean et al. 90 and separated on an analytical c18 reverse phase column according to FIG. 7. The DPM were determined using an on-line scintillation counter.

ERLD = assay: Retinol metabolism, ERLD; type: in vitro ADME
Experimental: as §1

Hela = assay: Retinol metabolism, Hela; type: in vitro ADME, human
Experimental: as §1

CC(C=CC=C(C)C(O)CO)=CC=C1C(C)=CCCC1(C)C (stereo not drawn) [14HRR, 14-hydroxy-4,14-retro-retinol]
response of CD8+ subset to anti-CD3 plus IL-2 (CD8^+ T lymphocytes): responded to the activating signal
expression of immediate early genes [1]: facilitates the expression of immediate early genes in fibroblasts
difference in active concentration, 14HRR vs retinal (B lymphocytes): 40 fold
support of B cell proliferation / response (B lymphocytes): capable of supporting the proliferation of B cells in the absence of an external supply of retinal
active concentration (B lymphocytes; previous analyses with B lymphocytes (ref. 33)): 50 nM

CC1=C(/C=C/C(C)=C/C=C/C(C)=C/C(=O)O)C(C)(C)CCC1 [all-trans retinoic acid]
detection as metabolite of retinol (5/2 cells): not detectable

CC1=C(/C=C/C(C)=C/C=C/C(C)=C/CO)C(C)(C)CCC1 [retinol, all-trans retinol]
Ester (% of taken up retinol) (Ket): 41%
P3 (% of taken up retinol) (Ket): 3%
Total cts. (Ket): 4.6 × 10^5 cts.
Ester (% of taken up retinol) (ERLD): 20%
P3 (% of taken up retinol) (ERLD): 9%
Total cts. (ERLD): 2.8 × 10^5 cts.
Ester (% of taken up retinol) (Hela): 20%
P3 (% of taken up retinol) (Hela): 3%
Total cts. (Hela): 1.0 × 10^5 cts.
